Measured values published in US20090105172A1, “Stabilized Aptamers to PSMA and Their Use as Prostate Cancer Therapeutics” (priority 2005, published 2009).
pKd: −log10 of the molar value. “Also recorded” adds a separate entry of the source.

Target: T1, ECD PSMA (Homo sapiens, UniProt Q04609)
T1 construct: vector-derived N-terminal linker […]; made in house; host or cells: 293 Freestyle cells, pSecTag2B vector
Assay: Dot blot binding assay (nitrocellulose filter) with purified ECD PSMA
Settings: for Max % bound (highest % of minimer bound to target protein): dot blot
Text: Protein Purification of ECD of PSMA: An I.M.A.G.E. clone (5202715) encoding full length recombinant human PSMA was purchased from Open Biosystems (Clone EHS1001-18533, Huntsville, Ala.). PCR was used to amplify the extracellular portion of the full length clone. An oligo with an N-terminal histidine tag was designed to engineer a construct which lacks the transmembrane domain residues 1-44. The his-tagged extracellular domain (ECD) was subcloned into the pSecTag2B expression vector (Invitrogen, Carlsbad, Calif.). The ECD of PSMA was purified in house from transfected 293 Freestyle cells (ATCC, Manassas, Va.). The amino acid sequence of the expressed protein comprising an N-terminal linker sequence of […] followed by eight Histidines is listed below: […] VSDr[…]a[…]r[…]rYV […] (SEQ ID NO 5)
Dot Blot Binding Analysis. Dot blot binding assays were performed throughout the selections to monitor the protein binding affinity of the pools. For initial pool screening, trace ^32P-labeled pool RNA was combined with PSMA and incubated at room temperature for 30 min in 1×SHMCK buffer pH 7.4 (20 mM Hepes pH 7.4, 120 mM NaCl, 5 mM KCl, 1 mM MgCl2, 1 mM CaCl2) plus 0.1 mg/mL tRNA in a final volume of 30 μl. The mixture was applied to a dot blot apparatus (Schleicher and Schuell Minifold-1 Dot Blot, Acrylic, Keene, N.H.), assembled (from top to bottom) with nitrocellulose, nylon, and gel blot membranes. RNA that is bound to protein is captured on the nitrocellulose filter; whereas the non-protein bound RNA is captured on the nylon filter. […] The Round 9 pool was cloned and screened in a single point dot blot assay using 100 nM PSMA (0 nM PSMA was used as a negative control). Clone transcripts were 5′ end labeled with ^32-P ATP. Likely binders were than assayed for KD determination by the blot assay conditions described directly above, but without tRNA, using an 8 point PSMA titration with a constant RNA concentration. […] Both of the clones screened were unique sequences in the Round 9 selection pool.
In order to identify the core structural elements required for ARC955 binding to PSMA, the 3′-boundaries of the clone was determined through alkaline hydrolysis. The parent RNA transcript was labeled at the 5′-end with γ-^32P ATP and T4 polynucleotide kinase. Radiolabeled ligands were subjected to partial alkaline hydrolysis and then selectively bound in solution to ECD PSMA (purified in house) at 100 nM before being passed through nitrocellulose filters (Centrex MF 1.5 mL, 0.45 μm, Schleicher & Schuell, Keene N.H.). Retained oligonucleotides were resolved on 8% denaturing polyacrylamide gels. The smallest oligonucleotide bound to PSMA defined the 3′-boundary. On the basis of the boundary experiments as well as visual inspection of predicted folds, truncated constructs were synthesized. Clones were then assayed by dot blot as previously described to determine their KD. […] The binding curve for ARC1091 in the dot blot assay is depicted in FIG. 5A, and the predicted secondary structure of ARC1091 is depicted in FIG. 5B. The KD and maximum % bound for the 3 minimized constructs with the overall highest PSMA affinity, as determined by a dot blot binding assay, are listed in Table 4. For the minimized rGmH aptamers described in Table 5 below, the guanosine triphosphates are 2′-OH and the adenosines triphosphates, cytidine triphosphates and uridine triphosphates are 2′-OMe. Unless noted otherwise, the individual sequences are represented in the 5′ to 3′ orientation. In some embodiments, the invention comprises aptamers with a nucleic acid sequence as described in Table 4 below. In some embodiments, the nucleic acid sequence of an aptamer described in Table 4 below additionally comprises a 3′ cap (e.g., an inverted dT cap), and/or 5′ amine (NH2) modification to facilitate chemical coupling, and/or conjugation to a high molecular weight, non-immunogenic compound (e.g., PEG). […]

T1 sequence (Q04609 with tags, fused parts or gaps): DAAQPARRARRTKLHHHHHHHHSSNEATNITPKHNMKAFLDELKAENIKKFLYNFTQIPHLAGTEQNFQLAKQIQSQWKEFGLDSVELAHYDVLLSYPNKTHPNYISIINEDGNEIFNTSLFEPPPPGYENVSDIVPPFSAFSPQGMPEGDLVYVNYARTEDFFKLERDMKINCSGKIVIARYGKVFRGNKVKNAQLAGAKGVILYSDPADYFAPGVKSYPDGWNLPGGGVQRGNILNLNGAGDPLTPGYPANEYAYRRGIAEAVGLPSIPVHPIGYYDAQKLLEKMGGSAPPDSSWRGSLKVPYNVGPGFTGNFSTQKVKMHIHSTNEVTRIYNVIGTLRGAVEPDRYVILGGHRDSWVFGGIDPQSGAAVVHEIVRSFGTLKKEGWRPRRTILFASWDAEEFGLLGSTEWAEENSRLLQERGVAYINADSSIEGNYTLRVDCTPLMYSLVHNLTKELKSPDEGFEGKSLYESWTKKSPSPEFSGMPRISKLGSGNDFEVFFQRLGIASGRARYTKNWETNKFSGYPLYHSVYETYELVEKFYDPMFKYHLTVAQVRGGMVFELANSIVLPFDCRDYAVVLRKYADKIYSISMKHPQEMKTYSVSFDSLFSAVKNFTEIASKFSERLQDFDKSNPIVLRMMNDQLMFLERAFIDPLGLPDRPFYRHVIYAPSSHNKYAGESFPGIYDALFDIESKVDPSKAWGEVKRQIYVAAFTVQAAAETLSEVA

Substance | PSMA binding | pKd (rGmH minimers) | Max % bound (highest % of minimer bound to target protein) (rGmH minimers) | pKd (Round 9 PSMA rGmH clones, 8 point PSMA titration, without tRNA) | KD (nM) (rGmH minimers)
mAGmAGGmAGmAGmAmAmCGmUmUmCmUmAmCmUmAmUGGGmUGGmCmUGGGmAGGGG (AGAGGAGAGAACGUUCUACUAUGGGUGGCUGGGAGGGG; 2'-O-methyl at ACU, RNA at G, backbone not given here) [ARC1091, minimized ARC955 (G2) aptamer] | maintains the full binding capacity | 8.51 | 52% |  | 
UAAUACGACUCACUAUAGGGGAGAGGAGAGAACGUUCUACACAUGGGUCGGGUGAGUGGCAAAGGAAUAGGUCGAUCGAUCGAUCAUCGAUG [ARC956] |  |  |  | 7.80 | 
GGGUGGCUGGGAGGGGAAGAGGG (2'-O-methyl at ACU, RNA at G, backbone not given here) [ARC1088, rGmH minimer] |  | 8.68 | 33% |  | 
CUACUGGGUGGCUGGGAGGGGAAGAGGGAGUAG (2'-O-methyl at ACU, RNA at G, backbone not given here) [ARC1089, rGmH minimer] |  | 8.03 | 22% |  | 
CUACUACACAUGGGUCGGGUGAGUGGCAAAGGAAUAGUAG (2'-O-methyl at ACU, RNA at G, backbone not given here) [ARC725, non-functional rGmH minimer, irrelevant control] | no intrinsic PSMA binding; also recorded: not to exhibit PSMA binding |  | no binding |  | no binding
